Reference: patent US12410211B2, “V1A receptor partial agonist and method of use” (PharmaIN Corporation, priority 2020, dated 2025)
Read-outs that look alike come from different tables or passages of the source. Marks after values point to notes of the source that are not given here. Where a SMILES comes first, the peptide text is derived from it. Bridges are numbered along the chain shown (N, C = ends). [ ]: non-standard residue; d: D form. Aad = N[C@@H](CCCC(=O)O)C(=O)O; Dap = NC[C@H](N)C(=O)O; Mpa = O=C(O)CCS

What was measured:
V1a receptor = molecular target: T1, V1a receptor (Homo sapiens, UniProt P37288); assay: V1a Human Vasopressin GPCR Cell Based Agonist Calcium Flux Assay; conditions: for Emax: read-out: V1a Highest agonist effect (% of AVP)
T1 construct: host or cells: CHO cells
T1 sequence (P37288 whole entry): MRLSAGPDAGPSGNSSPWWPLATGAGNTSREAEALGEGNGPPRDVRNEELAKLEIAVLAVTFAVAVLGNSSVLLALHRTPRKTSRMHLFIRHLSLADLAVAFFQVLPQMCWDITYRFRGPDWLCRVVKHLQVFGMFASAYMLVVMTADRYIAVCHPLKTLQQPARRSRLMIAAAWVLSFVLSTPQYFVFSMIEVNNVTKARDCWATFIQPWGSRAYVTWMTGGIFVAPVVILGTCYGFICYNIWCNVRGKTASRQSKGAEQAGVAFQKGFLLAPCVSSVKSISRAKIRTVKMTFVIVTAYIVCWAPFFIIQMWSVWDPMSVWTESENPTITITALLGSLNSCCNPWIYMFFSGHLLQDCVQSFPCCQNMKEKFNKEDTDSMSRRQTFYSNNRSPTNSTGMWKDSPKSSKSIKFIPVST
Method: Peptides of Formula (I) include Mpa-Tyr-Phe-Hgn-Asn-Cys-Pro-Lys(X)a-Gly-NH2 [SEQ ID NO. 24]; where (X)a is a peptide with “a” residues and each residue X is independently selected from Gly, and a D- or L-amino acid version of Ala, Lys, Orn, Glu, and Asp, where “a” is 0-10. V1a Human Vasopressin GPCR Cell Based Agonist Calcium Flux Assay were conducted at Eurofins Cerep SA (France) on a fee for service basis. Human recombinant CHO cells expressing human V1 receptors were distributed in microplates. Intracellular calcium signal was detected by fluorimetry, and the signal was acquired before and after addition of a known agonist concentration. The following agonist concentrations were tested (nM); 0.0128, 0.064, 0.32, 1.6, 8, 40, 200, and 1,000. […] All assays were performed in duplicate. Changes in fluorescence intensity reflected changes in the concentration of free cytosolic calcium. […] The half-maximal effective concentration (EC50) was determined by a non-linear regression analysis of the concentration-response curves generated with mean replicate values using Hill equation curve fitting (Cerep, I'Evescault, France).
V1a Human Vasopressin GPCR Cell Based Agonist Calcium Flux Assay were conducted using human recombinant CHO cells expressing human V1 receptor. Briefly, human recombinant CHO cells expressing human V1 receptor were distributed in microplates at 4.5×10^4 cells/well. The fluorescent probe (Fluo4 Direct, Invitrogen) mixed with probenicid in HBSS buffer (Invitrogen) complemented with 20 mM HEPES (Invitrogen) (pH 7.4) is then added into each well and equilibrated with the cells for 60 min at 37° C. then 15 min at 22° C. Thereafter, the assay plates are positioned in a microplate reader (CellLux, PerkinElmer) which is used for the addition of the test compound, reference agonist or HBSS buffer (basal control), and the measurements of changes in fluorescence intensity which varies proportionally to the free cytosolic Ca^2+ ion concentration. The following agonist concentrations were tested (nM), 0.0128, 0.064, 0.32, 1.6, 8, 40, 200, and 1,000. […] All assays were performed in duplicate. Changes in fluorescence intensity reflected changes in the concentration of free cytosolic calcium. […] Referring to FIG. 3 and Table 4, the half-maximal effective concentration (EC50) was determined by non-linear regression analysis of the concentration-response curves generated with mean replicate values using Hill equation curve fitting (Cerep, I'Evescault, France).

[1] = Therapeutic index (NOAEL/NOEL): paleness, lethargy, ataxia observation in Sprague-Dawley rats (Example 7); type: in vivo; conditions: for Highest dose with no-observed effect level or paleness (NOEL) / NOAEL/NOEL (therapeutic index) / NOAEL / Ataxia (duration, hrs; SD) / Marked adverse effect (Lowest dose first showed Ataxia) / Mild adverse effect (Lowest dose first showed Lethargy) / Lethargy (duration, hrs; SD) / NOAEL at 24 h: rat; for NOAEL / NOAEL at 24 h: read-out: Highest dose with no-observed adverse effect level without lethargy (NOAEL); for NOAEL at 24 h: male, Sprague-Dawley
Excerpt: As used herein, the term “therapeutic index” (TI; also referred to as therapeutic ratio) is a quantitative measure of the relative safety of a drug. […] For the purpose of the present application, lethargy is a lack of energy and/or sleepiness which is visually observed in rats as a lack of mobility, such as a lack of mobility even in the presence of human activity. For the purpose of present specification, peripheral vasoconstriction is visually observed by a paleness of the extremities (e.g., skin of hands, feet, ears, and lips). In rats, peripheral vasoconstriction is determined by a side-by-side comparison of ear paleness in treated subjects (e.g., Sprague Dawley rats, a white rat with easily visualizable changes in redness/paleness) vs. untreated control subjects. The V1a agonist (or partial agonist) with a high therapeutic index will have a better safety profile than that with a low therapeutic index by providing a wider margin of safety for dosing during the treatment of the disease. This NOAEL/NOEL ratio, being a quantitative measure of the relative safety, is a comparison of the amount of a therapeutic agent that causes the therapeutic effect (useful effect, vasoconstriction for the purpose of the present specification) to the amount that causes toxicity. A V1a agonist that causes severe vasoconstriction will affect not only the peripheral vessels, with several layer of smooth muscles, but also other vessels present in other organs (e.g., heart, lungs, kidney, brain) and this will result in observed lethargy and eventually ataxia. A partial agonist is less likely to reach such an extreme level of vasoconstriction and is believed to have a higher therapeutic index.
In this study, 8 to 10 weeks male Sprague-Dawley rats (Charles River; Wilmington, MA) under isoflurane anesthesia (n=3 or 6) were intravenously (IV) or subcutaneously (SC) injected or administered with various test articles. Prior to administration of test articles, the injection area was clipped free of fur, to allow for clear visualization of the dose site, and animal weight was measured and recorded. Animals were housed two per cage. […] Lethargy is when the animal eyes cannot fully open and is associated deep breathing and limited of movement even in the presence of human.

[2] = Table 3, cells printed in μM, read-out: Estimated V1a EC50, n = 2
[3] = S.C., at the Marked adverse effect dose
[4] = S.C., at the Mild adverse effect dose
[5] = FIG. 2 / FIG. 3 legend, n=2, read-out: EC50 for V1a receptor

Row | Compound | EC50 (V1a receptor; [2]) | Emax (V1a receptor; Table 3, n = 2) | Paleness (Duration, hrs; SD) [1, 3] | Paleness (Duration, hrs; SD) [1, 4] | Paleness (Duration, hrs; SD) ([1]; S.C., at the NOAEL dose) | Paleness (Duration, hrs; SD) ([1]; S.C., at the NOEL dose) | Highest dose with no-observed effect level or paleness (NOEL) ([1]; S.C.) | NOAEL/NOEL (therapeutic index) ([1]; S.C.) | NOAEL ([1]; in vivo, sc, S.C.) | Ataxia (duration, hrs; SD) ([1]; in vivo, sc) | Marked adverse effect (Lowest dose first showed Ataxia) ([1]; in vivo, sc) | Mild adverse effect (Lowest dose first showed Lethargy) ([1]; in vivo, sc) | Marked adverse effect (Lowest dose first showed Ataxia) ([1]; S.C.) | Mild adverse effect (Lowest dose first showed Lethargy) ([1]; S.C.) | Lethargy (duration, hrs; SD) ([1]; in vivo, sc) | EC50 (V1a receptor; [5]) | Emax (V1a receptor; Table 4, n = 2) | NOAEL at 24 h ([1]; in vivo, sc, S.C.) | bioactivity duration compared with terlipressin ([1]; remark in NOAEL/NOEL column) | V1a Highest agonist effect (% of AVP); n = 2 (V1a receptor; Table 3)
1 | NC[C@H](NC(=O)[C@@H]1CCCN1C(=O)[C@@H]1CSSCCC(=O)N[C@@H](Cc2ccc(O)cc2)C(=O)N[C@@H](Cc2ccccc2)C(=O)N[C@@H](CCCC(N)=O)C(=O)N[C@@H](CC(N)=O)C(=O)N1)C(=O)NCC(N)=O [SEQ ID NO. 17, Mpa-Tyr-Phe-Hgn-Asn-Cys-Pro-Dap-Gly-NH2] ([Mpa]YF[Aad](NH2)NCP[Dap]G-NH2; disulfide 1-6) | > 10 µM | 3.5% | (>6.18)* hrs | (>5.92)* hrs | (6.11 ± 0.07) hrs | None observed | 14 µg/kg | 34 | 0.478 mg/kg | None observed | >9.95 mg/kg | 4.78 mg/kg | – | – | – | – | – | – | – | –
2 | NCCCC[C@@H](NC(=O)[C@@H]1CCCN1C(=O)[C@@H]1CSSCCC(=O)N[C@@H](Cc2ccc(O)cc2)C(=O)N[C@@H](Cc2ccccc2)C(=O)N[C@@H](CCCC(N)=O)C(=O)N[C@@H](CC(N)=O)C(=O)N1)C(=O)NCC(N)=O [SEQ ID NO. 18, Mpa-Tyr-Phe-Hgn-Asn-Cys-Pro-dLys-Gly-NH2] | > 10 µM | 0.2% | – | – | – | – | 5 µg/kg | 30 | 0.15 mg/kg | – | 1.5 mg/kg | 0.5 mg/kg | – | – | – | – | – | – | – | –
3 | NCCCCCCCCCCCC(=O)NCCCC[C@H](NC(=O)[C@@H]1CCCN1C(=O)[C@@H]1CSSCCC(=O)N[C@@H](Cc2ccc(O)cc2)C(=O)N[C@@H](Cc2ccccc2)C(=O)N[C@@H](CCCC(N)=O)C(=O)N[C@@H](CC(N)=O)C(=O)N1)C(=O)NCC(N)=O [SEQ ID NO. 19, Mpa-Tyr-Phe-Hgn-Asn-Cys-Pro-Lys(12-aminododecanoic acid)-Gly-NH2] | > 10 µM | 2.5% | – | – | – | – | 14 µg/kg | 649 (Dose too | 9.08 mg/kg | None Observed | – | – | >9.08 mg/kg | >9.08 mg/kg | None Observed | – | – | – | – | –
4 | NCC(=O)NCC(=O)NCC(=O)NCC(=O)NCC(=O)NCC(=O)NCCCC[C@H](NC(=O)[C@@H]1CCCN1C(=O)[C@@H]1CSSCCC(=O)N[C@@H](Cc2ccc(O)cc2)C(=O)N[C@@H](Cc2ccccc2)C(=O)N[C@@H](CCC(N)=O)C(=O)N[C@@H](CC(N)=O)C(=O)N1)C(=O)NCC(N)=O [SEQ ID NO. 20, Mpa-Tyr-Phe-Gln-Asn-Cys-Pro-Lys(X)a-Gly-NH2; (X)a = (Gly)6] | – | – | (>6.76)* hrs | (>5.46)* hrs | (6.11 ± 0.09) hrs | None observed | 1.5 µg/kg | 100 | – | – | 5.0 mg/kg | 0.5 mg/kg | – | – | – | 0.0273 µM | 60.9% | 0.15 mg/kg | – | –
5 | NCC(=O)NCC(=O)NCC(=O)NCC(=O)NCC(=O)NCC(=O)NCC(=O)NCC(=O)NCC(=O)NCCCC[C@H](NC(=O)[C@@H]1CCCN1C(=O)[C@@H]1CSSCCC(=O)N[C@@H](Cc2ccc(O)cc2)C(=O)N[C@@H](Cc2ccccc2)C(=O)N[C@@H](CCC(N)=O)C(=O)N[C@@H](CC(N)=O)C(=O)N1)C(=O)NCC(N)=O [SEQ ID NO. 23, Mpa-Tyr-Phe-Gln-Asn-Cys-Pro-Lys(X)a-Gly-NH2; (X)a = (Gly)9] | – | – | (>6.46)* hrs | (6.23 ± 0.05) hrs | (>5.09)* hrs | None observed | 1.5 µg/kg | 333 | – | – | 5.0 mg/kg | 1.5 mg/kg | – | – | – | 0.0126 µM | 55.9% | 0.5 mg/kg | – | –
6 | NCCCC[C@H](NC(=O)[C@@H]1CCCN1C(=O)[C@@H]1CSSCCC(=O)N[C@@H](Cc2ccc(O)cc2)C(=O)N[C@@H](Cc2ccccc2)C(=O)N[C@@H](CCCC(N)=O)C(=O)N[C@@H](CC(N)=O)C(=O)N1)C(=O)NCC(N)=O [SEQ ID NO. 25, Mpa-Tyr-Phe-Hgn-Asn-Cys-Pro-Lys-Gly-NH2] | – | 42.8% | (4.9 ± 0.05) hrs | (5.66 ± 0.83) hrs | (3.78 ± 0.05) hrs | None observed | 1.5 µg/kg | 10 | – | – | 0.15 mg/kg | 0.05 mg/kg | – | – | – | – | – | 0.015 mg/kg | 3x longer | –
7 | CCCCCCCCCCCC(=O)NCCCC[C@H](NC(=O)[C@@H]1CCCN1C(=O)[C@@H]1CSSCCC(=O)N[C@@H](Cc2ccc(O)cc2)C(=O)N[C@@H](Cc2ccccc2)C(=O)N[C@@H](CCCC(N)=O)C(=O)N[C@@H](CC(N)=O)C(=O)N1)C(=O)NCC(N)=O [SEQ ID NO. 27, Mpa-Tyr-Phe-Hgn-Asn-Cys-Pro-Lys(X)a-Gly-NH2; (X)a = Lauric acid] | > 10 µM | – | – | – | – | – | 100 µg/kg | 90 (dose too | 9 mg/kg | None Observed | >9 mg/kg | >9 mg/kg | – | – | None Observed | – | – | – | – | inactive
